# Measured values: publication PMC11634579, “Network pharmacology, experimental validation and pharmacokinetics integrated strategy to reveal pharmacological mechanism of goutengsan on methamphetamine dependence” (Frontiers in Pharmacology, 2024)
# “Also recorded” adds a separate entry of the source. Structures can show the parent of a compound that is named as a salt.
# How the values were obtained:
# [1] = parameters: method as in Ru et al., 2014; conditions: obtained from TCMSP database; ref Ru et al., 2014; cited from earlier work
# [2] = Pharmacokinetics and brain tissue distribution after gavage of GTS (UPLC-MS); format: in vivo, Babl/c mice; conditions: mice; for time at which concentration in brain peaked: gavage of GTS infusion (2.75 g crude drug/mL, 2 mL/kg), sampling 0.5, 2, 4, 6, 9 h
# Method: Animal experiments: Babl/c mice weighing 18–22 g (6–8 weeks old) with equal numbers of males and females, were provided by the Experimental Animal Center of Southern Medical University. The mice were maintained at room temperature (20 ± 2) °C, humidity (60 ± 5)%, 12 h light cycles, and provided an ad libitum diet. Thirty mice were randomly divided into 0.5, 2, 4, 6 and 9 h groups, with 6 mice each. An infusion at concentration of 2.75 g of GTS crude drug/mL was obtained, and the drug was administered by gavage at a dose of 2 mL GTS infusion drug/kg. After 0.5, 2, 4, 6 and 9 h of administration, the plasma and brain tissues in the 0.5, 2, 4, 6 and 9 h groups were collected. The plasma and brain tissue samples were processed in accordance with biological sample processing procedures.
# Establishment of UPLC-MS method: An LCMS-8050 liquid chromatography mass spectrometer (Shimadzu, Japan) was operated with a horizon C18 column (100 × 2.1 mm, 3 µm). The mobile phase was 0.1% formic acid in water (A) - acetonitrile (B), and the gradient elution was 0–8 min, 10%–50% B; 8–9 min, 50%–10% B; 9–11 min, 10% B. The column temperature was 30°C, the injection volume was 5 μL, and flow rate was 0.4 mL min^−1. The mass spectrometry conditions included HPLC-MS/MS in […] full-scan and sub-ion scanning modes, an electrospray ionization source (ESI), positive and negative ion mode detection, and nebulizing gas of nitrogen (N2). The zeroed gas flow rate was 3 L min^−1, desolventization temperature was 526°C, and DL temperature was 250°C. Then the parent ion, daughter ion, collision energy, and polarity of the above components were determined (Table 2).
# SH-SY5Y cells = experiment: MTT detection of cell viability; format: cell-based, human; conditions: 48 h
# Method: (§1) SH-SY5Y cells were inoculated into a 96-well plate. […] After 48 h of incubation at 6 wells per concentration, MTT was added for 4 h. Then incubation was stopped, the liquid was discarded, and dimethyl sulfoxide was added. After horizontal shakening for 5 min, the absorbance at 490 nm was measured using an enzyme-linked immunosorbent assay (Elisa) reader ([Yang et al., 2018]).
# [3] = MTT detection of cell viability; format: cell-based, human; conditions: human, SH-SY5Y cells, 200 μmol ·L^−1, 48 h
# Method: as §1
# MA-induced CPP effect = experiment: MA-dependent rat conditioned place preference (CPP) model; format: in vivo, Sprague-Dawley (SD) rats; conditions: vs MA model group, GTS 11.00 g crude drug/kg i.p., MK-801 10 mg/kg i.p.
# Method: Male Sprague-Dawley (SD) rats weighing 180–220 g (2 months old) were provided by the Experimental Animal Center of Southern Medical University. The rats were maintained at room temperature (20 ± 2) °C, humidity (60 ± 5)%, 12 h light cycles, and provided an ad libitum diet. Before commencing the experiment, the rats were allowed to acclimatize for a minimum of 3 days. The Southern Medical University Experimental Animal Ethics Committee approved all animal experiments, which were conducted in accordance with the National Institutes of Health Guide for the Care and Use of Laboratory Animals (NIH publication #85–23, revised 1985). […] An MA-dependent rat CPP model was established in our previous studies and MA was used at 2 mg/kg ([Li et al., 2018b]). […] Before administration, determine the dosing volume based on each rat’s body weight; for example, a 200 g rat would receive a 1 mL dose.
# Given the scarcity and specificity of […], we decided to use a 4x equivalent dose of GTS as the therapeutic dose. Thus, in the current study, only one treatment dose group of GTS was selected.
# The CPP exam was made up of three phases over the course of 10 days (Figure 5A). During the habituation phase (days 1–3), each rat was allowed to move freely firom the black to white compartment for 30 min each day. On day 3, rats were videotaped throughout a 15-min trial and their movement trajectories, time spent and total movement distances were recorded. The door was closed to keep the two compartments apart during the conditioning period (on days 4–9). […] Rats were given the same amount of physiological saline (s.c.) in each group after an 8-h break, and they were then promptly segregated into the black compartment for 1 h. […] At 0:00 a.m. on day 10 (testing phase), the formal CPP testing began, rats were videotaped throughout a 15-min trial using Noldus Ethovision XT 8.5 software, and their movement trajectories, time spent and total movement distances were recorded.
# cAMP = experiment: Elisa detection of cAMP in MA-induced SH-SY5Y cells; format: cell-based, human; conditions: vs MA model group (100 μmol ·L^−1 MA, 48 h); 4x equivalent dose GTS-containing serum, MK-801 100 μmol ·L^−1
# Method: (§2) An equal volume of the complete culture medium was added to the control group. The drug-containing culture medium (100 μmol ·L^−1 MA) was added to MA model group. […] After medication, all groups were continued for 48 h, photographed, and used for the next experiment.
# (§3) The above SH-SY5Y cells were inoculated onto a 6-well plate, and cultured for 24 h. Then the culture medium was aspirated. The cells were rinsed with phosphate buffered salt (PBS) once. After PBS was removed, a hydrochloric acid solution was added. The cells were scraped to form cell suspension. After centrifugation, the supernatant was extracted, and the cAMP and 5-HT levels of the cells were detected according to the instructions of an Elisa reagent kit (Dakewei Biotechnology Co., Ltd.) ([Zhan et al., 2022]).
# 5-HT = experiment: Elisa detection of 5-HT in MA-induced SH-SY5Y cells; format: cell-based, human; conditions: vs MA model group (100 μmol ·L^−1 MA, 48 h); 4x equivalent dose GTS-containing serum, MK-801 100 μmol ·L^−1
# Method: as §2, §3
# [4] = test system: pyramidal cells in hippocampal CA1; experiment: HE staining of rat hippocampal CA1 after CPP test; format: in vivo, Sprague-Dawley (SD) rats; conditions: vs MA model group
# Excerpt: After the CPP test, a cervical dislocation method was used to euthanize the rats. The brain tissue of each rat was cut along the midline of the sagittal plane in the head. […] The hippocampus consists of CA1, CA2, CA3, and CA4. Specifically, CA1 is mainly composed of […], and is more suitable for MA-dependent observation ([Zhong et al., 2012]). Therefore, the pyramidal cells in hippocampal CA1 were mainly observed after hematoxylin-eosin (HE) staining. The hippocampal CA1 after HE staining was observed under microscopy and then photographed.
# [5] = after oral administration of GTS
# 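Wherever BBB (blood–brain–barrier) is given: unitless TCMSP predicted score with screening cut-off BBB at least 0.3.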
Compound,BBB (blood–brain–barrier) [1],OB% (oral bioavailability) [1],"exposure in plasma and brain [2, 5]",time at which concentration in brain peaked [2],also measured
COc1ccc([C@@H]2CC(=O)c3c(O)cc(O[C@@H]4O[C@H](CO[C@@H]5O[C@@H](C)[C@H](O)[C@@H](O)[C@H]5O)[C@@H](O)[C@H](O)[C@H]4O)cc3O2)cc1O [Hesperidin],0.82,32.75%,exposed in the plasma and brain; also recorded: absorbed into the bloodstream and distributed to brain tissues,4 h,–
O=C1C[C@@H](c2ccc(O[C@@H]3O[C@H](CO)[C@@H](O)[C@H](O)[C@H]3O)cc2)Oc2cc(O)ccc21 [Liquiritin],0.61,58.81%,–,–,"detection in brain tissues [2, 5]: undetectable; detection in plasma [2, 5]: detectable in plasma and at high levels"
"CN[C@@H](C)Cc1ccccc1 [MA, Methamphetamine hydrochloride]",–,–,–,–,"maximum safe dose (SH-SY5Y cells): 100 µmol/L; viability at 48 h, 200 μmol·L^−1 [3]: < 90%"
"C[C@]12N[C@H](Cc3ccccc31)c1ccccc12 [MK-801, Dizocilpine]",–,–,–,–,movement trajectory in CPP box after MA training (MA-induced CPP effect; once daily days 5–9): significantly decreased; time spent in the white box after MA training (MA-induced CPP effect; n = 10): same trend as GTS treatment group; total movement distances in the white box after MA training (MA-induced CPP effect; n = 10): same trend as GTS treatment group; level of cAMP in SH-SY5Y cells (cAMP): same trend as GTS treatment group; level of 5-HT in SH-SY5Y cells (5-HT): same trend as GTS treatment group; damage of pyramidal cells in hippocampal CA1 (HE staining) [4]: significantly reduced damage
CC[C@H]1CN2CC[C@]3(C(=O)Nc4ccccc43)[C@@H]2C[C@@H]1/C(=C\OC)C(=O)OC [Rhynchophylline],0.38,41.82%,exposed in the plasma and brain; also recorded: absorbed into the bloodstream and distributed to brain tissues,6 h,–
